# Results reported in PubChem BioAssay (NCI).
#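 Briefly, cells in 96-well plates were exposed to five compound concentrations for 48 h, and endpoints were estimated by linear interpolation. GI50: concentration for 50% inhibition of growth. TGI marks complete inhibition of growth.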
# Legend:
# Test in all cases: DTP human tumour cell line panel, 48 h
# HOP-92 NSCLC = system: HOP-92 NSCLC
# UACC-257 melanoma = system: UACC-257 melanoma
# ACHN renal = system: ACHN renal
# SK-MEL-2 melanoma = system: SK-MEL-2 melanoma
# IGROV1 ovarian = system: IGROV1 ovarian
# SR leukemia = system: SR leukemia
# SN12C renal = system: SN12C renal
# 786-0 renal = system: 786-0 renal
# NCI-H460 lung = system: NCI-H460 lung
# HOP-62 NSCLC = system: HOP-62 NSCLC
# MCF7 breast = system: MCF7 breast
structure (smiles),measurement,setting,value
COc1ccc(OC)c(CCc2ccccc2CC(=O)O)c1,TGI,HOP-92 NSCLC,> 100 µM
same,TGI,UACC-257 melanoma,> 100 µM
same,TGI,ACHN renal,> 100 µM
same,TGI,SK-MEL-2 melanoma,> 100 µM
same,TGI,IGROV1 ovarian,> 100 µM
same,TGI,SR leukemia,> 100 µM
same,TGI,SN12C renal,> 100 µM
same,TGI,786-0 renal,> 100 µM
same,TGI,NCI-H460 lung,> 100 µM
CCC/C=C/C=C\C(=O)O[C@@H]1[C@@H](C)[C@]2(O)[C@@H]3C=C(C)C(=O)[C@H]3CC(COC(C)=O)=C[C@H]2[C@@H]2C(C)(C)[C@]12OC(C)=O,TGI,HOP-92 NSCLC,156 µM
same,TGI,UACC-257 melanoma,91.5 µM
same,TGI,HOP-62 NSCLC,33.8 µM
same,TGI,MCF7 breast,83.1 µM
same,TGI,SK-MEL-2 melanoma,104 µM
same,TGI,IGROV1 ovarian,109 µM
same,TGI,SN12C renal,100 µM
same,TGI,NCI-H460 lung,63.7 µM
CCOC(=O)NC(C(F)(F)F)(C(F)(F)F)P(=O)(OCC)OCC,TGI,HOP-92 NSCLC,> 100 µM
same,TGI,HOP-62 NSCLC,> 100 µM
same,TGI,ACHN renal,> 100 µM
same,TGI,MCF7 breast,> 100 µM
same,TGI,IGROV1 ovarian,> 100 µM
same,TGI,SN12C renal,> 100 µM
same,TGI,786-0 renal,> 100 µM
same,TGI,NCI-H460 lung,> 100 µM
CN(C)C1(N(C)C)Oc2c(c(=O)n(C)c(=O)n2C)C(c2ccc(F)cc2)C1(F)F (stereo not given),TGI,HOP-92 NSCLC,> 100 µM
same,TGI,UACC-257 melanoma,> 100 µM
same,TGI,HOP-62 NSCLC,> 100 µM
same,TGI,ACHN renal,> 100 µM
same,TGI,MCF7 breast,> 100 µM
same,TGI,SK-MEL-2 melanoma,> 100 µM
same,TGI,786-0 renal,> 100 µM
same,TGI,NCI-H460 lung,> 100 µM
N#CCCN(c1ccc(C=Nc2ccc(C(=O)O)cc2)cc1)S(=O)(=O)c1ccccc1,TGI,HOP-92 NSCLC,> 100 µM
same,TGI,UACC-257 melanoma,> 100 µM
same,TGI,HOP-62 NSCLC,> 100 µM
same,TGI,ACHN renal,> 100 µM
same,TGI,SK-MEL-2 melanoma,> 100 µM
same,TGI,IGROV1 ovarian,> 100 µM
same,TGI,SR leukemia,> 100 µM
same,TGI,SN12C renal,> 100 µM
same,TGI,786-0 renal,> 100 µM
same,TGI,NCI-H460 lung,> 100 µM
Cc1cc(N(CCC#N)CCC#N)ccc1/C=C(\N=[N+]=[N-])C(=O)NC(=O)COc1ccccc1,TGI,HOP-92 NSCLC,> 100 µM
same,TGI,UACC-257 melanoma,> 100 µM
same,TGI,HOP-62 NSCLC,> 100 µM
same,TGI,ACHN renal,> 100 µM
same,TGI,SK-MEL-2 melanoma,> 100 µM
same,TGI,IGROV1 ovarian,> 100 µM
same,TGI,SR leukemia,> 100 µM
same,TGI,SN12C renal,> 100 µM
same,TGI,786-0 renal,> 100 µM
same,TGI,NCI-H460 lung,> 100 µM
CCOC(=O)C(C(=O)OCC)S(C)(=O)=O,TGI,HOP-92 NSCLC,> 100 µM
same,TGI,UACC-257 melanoma,> 100 µM
same,TGI,HOP-62 NSCLC,> 100 µM
same,TGI,ACHN renal,> 100 µM
same,TGI,SK-MEL-2 melanoma,> 100 µM
same,TGI,IGROV1 ovarian,> 100 µM
same,TGI,SR leukemia,> 100 µM
same,TGI,SN12C renal,> 100 µM
same,TGI,786-0 renal,> 100 µM
same,TGI,NCI-H460 lung,> 100 µM
CC(=O)C(C(=O)C(=O)Nc1cc(Cl)c(Cl)cc1Cl)c1csc(N)n1 (stereo not given),TGI,HOP-92 NSCLC,> 100 µM
same,TGI,UACC-257 melanoma,> 100 µM
same,TGI,HOP-62 NSCLC,> 100 µM
same,TGI,ACHN renal,> 100 µM
same,TGI,SK-MEL-2 melanoma,> 100 µM
same,TGI,IGROV1 ovarian,> 100 µM
same,TGI,SR leukemia,> 100 µM
same,TGI,SN12C renal,> 100 µM
same,TGI,NCI-H460 lung,> 100 µM
Oc1ccccc1CNCc1ccccc1O,TGI,HOP-92 NSCLC,> 100 µM
same,TGI,UACC-257 melanoma,> 100 µM
same,TGI,HOP-62 NSCLC,> 100 µM
same,TGI,ACHN renal,> 100 µM
same,TGI,MCF7 breast,> 100 µM
same,TGI,SK-MEL-2 melanoma,> 100 µM
same,TGI,IGROV1 ovarian,> 100 µM
same,TGI,SN12C renal,> 100 µM
same,TGI,786-0 renal,> 100 µM
same,TGI,NCI-H460 lung,> 100 µM
CCCCCCC(O)C(=O)OC1C2C(CC1(C)C)C(O)C13OC1C(O)C1(CO1)[C@@]23C (stereo not given in full),TGI,UACC-257 melanoma,> 100 µM
same,TGI,HOP-62 NSCLC,> 100 µM
same,TGI,MCF7 breast,> 100 µM
same,TGI,IGROV1 ovarian,> 100 µM
same,TGI,SR leukemia,> 100 µM
same,TGI,SN12C renal,> 100 µM
same,TGI,786-0 renal,86.8 µM
COc1cc(Cn2c3ccccc3c3cc(C)cc(OC)c32)cc2c1[nH]c1ccccc12,GI50,HOP-92 NSCLC,5.39 µM
same,TGI,HOP-92 NSCLC,> 25 µM
same,GI50,HOP-62 NSCLC,6.63 µM
same,TGI,HOP-62 NSCLC,17.4 µM
same,GI50,ACHN renal,12.2 µM
same,TGI,ACHN renal,> 25 µM
same,TGI,SK-MEL-2 melanoma,> 25 µM
same,TGI,IGROV1 ovarian,> 25 µM
same,GI50,SR leukemia,16.6 µM
same,TGI,SR leukemia,> 25 µM
same,TGI,SN12C renal,> 25 µM
same,TGI,786-0 renal,> 25 µM
same,GI50,NCI-H460 lung,10.8 µM
same,TGI,NCI-H460 lung,> 25 µM
O=C(NCCCN1CCN(CCCNC(=O)c2cc(-c3ccccc3)nc3ccccc23)CC1)c1cc(-c2ccccc2)nc2ccccc12,TGI,HOP-92 NSCLC,28.5 µM
same,TGI,UACC-257 melanoma,5.45 µM
same,TGI,HOP-62 NSCLC,41.3 µM
same,TGI,ACHN renal,28.8 µM
same,TGI,MCF7 breast,53.5 µM
same,TGI,SK-MEL-2 melanoma,36.9 µM
same,TGI,IGROV1 ovarian,27.8 µM
same,TGI,SN12C renal,43 µM
same,TGI,786-0 renal,21.5 µM
same,TGI,NCI-H460 lung,> 64.7 µM
NCCCC(N)(C(=O)O)C(F)F (stereo not given),TGI,HOP-92 NSCLC,> 5000 µM
same,TGI,UACC-257 melanoma,> 5000 µM
same,TGI,HOP-62 NSCLC,> 5000 µM
same,TGI,MCF7 breast,> 5000 µM
same,TGI,SK-MEL-2 melanoma,> 5000 µM
same,TGI,IGROV1 ovarian,> 5000 µM
same,TGI,SN12C renal,> 5000 µM
same,TGI,NCI-H460 lung,> 5000 µM
CCCCCC1CC(C(C)=O)CN1c1ccc(F)cc1 (stereo not given),TGI,HOP-92 NSCLC,83.6 µM
same,TGI,UACC-257 melanoma,> 100 µM
same,TGI,ACHN renal,> 100 µM
same,TGI,SK-MEL-2 melanoma,> 100 µM
same,TGI,SR leukemia,> 10 µM
same,TGI,SN12C renal,> 100 µM
same,TGI,NCI-H460 lung,> 100 µM
O=C(O)c1ccc(Nc2nc3ccc(C(F)(F)F)cc3nc2-c2ccccc2)cc1,TGI,UACC-257 melanoma,> 100 µM
same,TGI,HOP-62 NSCLC,> 100 µM
same,TGI,ACHN renal,> 100 µM
same,TGI,MCF7 breast,> 100 µM
same,TGI,IGROV1 ovarian,> 100 µM
same,TGI,SR leukemia,> 100 µM
same,TGI,SN12C renal,> 100 µM
same,TGI,786-0 renal,> 100 µM
same,TGI,NCI-H460 lung,> 100 µM
Cc1cc2nc3c(C#N)c4c(c(Cl)n3c2cc1C)CCC4,TGI,HOP-92 NSCLC,95.5 µM
same,TGI,UACC-257 melanoma,> 100 µM
same,TGI,HOP-62 NSCLC,> 100 µM
same,TGI,ACHN renal,55.9 µM
same,TGI,SN12C renal,33.8 µM
same,TGI,786-0 renal,29.5 µM
same,TGI,NCI-H460 lung,> 100 µM
CC(C)(Cl)C(Cl)CC/C(CBr)=C(\Cl)CBr (stereo not given),TGI,HOP-92 NSCLC,3.63 µM
same,TGI,UACC-257 melanoma,5.09 µM
same,TGI,HOP-62 NSCLC,4.91 µM
same,TGI,ACHN renal,13.9 µM
same,TGI,MCF7 breast,6.97 µM
same,TGI,SK-MEL-2 melanoma,3.28 µM
same,TGI,IGROV1 ovarian,3.66 µM
same,TGI,SN12C renal,6.15 µM
same,TGI,786-0 renal,2.68 µM
same,TGI,NCI-H460 lung,8.21 µM
O=C1CS(=O)c2ccccc2N1 (stereo not given),TGI,HOP-92 NSCLC,> 100 µM
same,TGI,UACC-257 melanoma,> 100 µM
same,TGI,HOP-62 NSCLC,> 100 µM
same,TGI,ACHN renal,> 100 µM
same,TGI,SK-MEL-2 melanoma,> 100 µM
same,TGI,IGROV1 ovarian,> 100 µM
same,TGI,SR leukemia,> 100 µM
same,TGI,SN12C renal,> 100 µM
same,TGI,786-0 renal,> 100 µM
same,TGI,NCI-H460 lung,> 100 µM
CC(=O)c1sc2c(c1OC(=O)c1ccccc1)c(=O)n(-c1ccccc1)c(=S)n2-c1ccccc1,TGI,HOP-92 NSCLC,5.94 µM
same,TGI,UACC-257 melanoma,> 23.9 µM
same,TGI,HOP-62 NSCLC,45.9 µM
same,TGI,ACHN renal,12.6 µM
same,TGI,MCF7 breast,99.8 µM
same,TGI,SK-MEL-2 melanoma,7.88 µM
same,TGI,IGROV1 ovarian,54.5 µM
same,TGI,SN12C renal,> 42.5 µM
same,TGI,786-0 renal,17.9 µM
same,TGI,NCI-H460 lung,> 59.5 µM
Cc1nc2c(n1Cc1ccc(F)cc1)C(=O)c1ccccc1C2=O,TGI,UACC-257 melanoma,> 100 µM
same,TGI,HOP-62 NSCLC,> 100 µM
same,TGI,ACHN renal,> 100 µM
same,TGI,SK-MEL-2 melanoma,> 100 µM
same,TGI,IGROV1 ovarian,> 100 µM
same,TGI,SR leukemia,> 100 µM
same,TGI,SN12C renal,> 100 µM
same,TGI,786-0 renal,> 100 µM
same,TGI,NCI-H460 lung,> 100 µM
CCn1c(=O)c2c3ccc(O)cc3[nH]c2c2ccc(O)cc21,TGI,HOP-92 NSCLC,> 100 µM
same,TGI,UACC-257 melanoma,> 100 µM
same,TGI,HOP-62 NSCLC,> 100 µM
same,TGI,ACHN renal,> 100 µM
same,TGI,MCF7 breast,> 100 µM
same,TGI,IGROV1 ovarian,> 100 µM
same,TGI,SR leukemia,> 100 µM
same,TGI,SN12C renal,> 100 µM
COC1=C(OC)C(=O)C(C/C=C/c2c(Cl)nc3sccn23)=C(C)C1=O,TGI,UACC-257 melanoma,5.36 µM
same,TGI,HOP-62 NSCLC,32.1 µM
same,TGI,ACHN renal,36.1 µM
same,TGI,MCF7 breast,52.8 µM
same,TGI,SK-MEL-2 melanoma,48.3 µM
same,TGI,IGROV1 ovarian,35.9 µM
same,TGI,SR leukemia,66 µM
same,TGI,SN12C renal,31.7 µM
same,TGI,786-0 renal,49.2 µM
same,TGI,NCI-H460 lung,38.6 µM
O=C(O)C1Cc2[nH]c3ccccc3c2C2CCCC12 (stereo not given),TGI,HOP-92 NSCLC,> 100 µM
same,TGI,UACC-257 melanoma,> 100 µM
same,TGI,ACHN renal,> 100 µM
same,TGI,SK-MEL-2 melanoma,> 100 µM
same,TGI,IGROV1 ovarian,> 100 µM
same,TGI,SR leukemia,> 100 µM
same,TGI,SN12C renal,> 100 µM
same,TGI,786-0 renal,> 100 µM
same,TGI,NCI-H460 lung,> 100 µM
